# In patent US20240324627A1, “USE OF A FEED ADDITIVE IN LOW ENERGY FEED FOR PIGS” (Alzchem Trostberg GmbH, priority 2021, published 2024):
# Tests used:
# [1] = system: pigs; settings: Weber et al. 2017, cited from earlier work
# [2] = system: fattening pigs; assay: 39-day feeding experiment in fattening pigs with low energy feed; format: in vivo
# From the text: In a 39-day feeding experiment, three different feed concepts were fed to fattening pigs with an initial weight of ˜65 kg. For each feeding concept, 80 pigs in 16 pens (5 animals per pen) were examined. The pens were exclusively occupied by animals of the same gender, i.e. females or non-castrated boars, in a 1:1 gender ratio. The three different feed groups were optimized for the content of metabolic energy (ME) and the other raw nutrients based on the supply recommendations of the NRC (National Research Council of the National Academies, 2012: Nutrient requirements of Swine/Committee on Nutrient Requirements of Swine, Board on Agriculture and Natural Resources, Division on Earth and Life Studies.-11th rev. ed. p. cm.). A positive control group with 13.0 MJ ME covering the energy requirements was compared with a negative control group with 12.8 MJ ME reduced by 0.2 MJ. In a guanidinoacetic acid group supplemented with 600 g/t, an energy content of 12.7 MJ ME was adjusted. The fattening phase lasted 39 days. On day 40, the animals that had already reached the slaughter weight of ˜108 kg were slaughtered. For this reason, data was recorded on this day. The rations were based on wheat, wheat semolina bran, rapeseed extraction meal and soy extraction meal. Animal fat was also added in relevant amounts. The diets were isonitrogenous, i.e. the supply of crude protein and digestible amino acids was identical in all three treatment groups. [table] Feed conversion is the amount of feed consumed that leads to a weight gain of the animal of one kilogram. Energy utilization is the energy intake per kilogram of weight gain.
# [3] = 600 g/t (0.06%) in 12.7 MJ ME/kg feed
compound,measurement,setting,value
"N=C(N)NCC(=O)O [guanidinoacetic acid, Guanidinoacetic acid]",Feed uptake,[1]; addition to high energy feed,slightly lower
same,Daily increase (weight gain),[1]; common feed,only a slight daily increase at the threshold of significance
same,Feed conversion,[1]; common feed,slight improvement
same,"Daily feed intake, day 1-39",[2]; [3],2223 g
same,"Daily weight gain, day 1-39",[2]; [3],828 g
same,"Energy utilization, day 1-39",[2]; [3],34.2 MJ ME/kg gain
same,"Feed conversion, day 1-39",[2]; [3],2.69 kg feed/kg gain
same,"Live weight, day 39",[2]; [3],96.2 kg
same,Average slaughter weight,[2]; 600 g/t in 12.7 MJ ME/kg feed,107.3 kg
same,Daily weight gains in the fattening phase,[2]; 600 g/t in 12.7 MJ ME/kg feed,approximately 830 g/d
same,Energy deficit compensated,"[2]; addition of 600 g/t, daily feed intake at level of positive control",0.2 MJ ME
same,Improvement of feed conversion ratio compared to the negative control,"[2]; fattening phase, vs 12.8 MJ ME negative control",23 points
same,Improvement of feed conversion ratio compared to the positive control,"[2]; fattening phase, vs 13.0 MJ ME positive control",6 points
same,Less energy required per kg gain vs negative control,"[2]; fattening phase, vs negative control",4.3 MJ ME
same,Less energy required per kg gain vs positive control,"[2]; fattening phase, vs positive control",2.1 MJ ME
same,Average number of fattening days (from the start of the fattening phase),"[2]; until slaughter, 600 g/t in 12.7 MJ ME/kg feed",52
same,Energy utilization improvement,[2]; vs positive control,approximately 5.8%
same,Feed conversion improvement,[2]; vs positive control,approximately 2.2%
